Reference: patent publication US20050085547A1, “Molecules for inducing differentiation of dendritic cells” (Council of Scientific & Industrial Research, priority 2003, published 2005)
Where two headings read alike, the source gives them in different places.

Assays:
[1] = tested on: osteoclast precursors; test: In vitro osteoclastogenesis assay (M-CSF + RANKL, TRAP staining); format: cell-based, Balb/c mice; settings: for % inhibition of osteoclast formation / Number of TRAP-positive multinuclear cells/well of 96 well plate (Mean ± SEM): 6 days; for Effect on RANKL-induced osteoclast differentiation / formation (in words): M-CSF and RANKL, TRAP-positive osteoclasts
Text: For in vitro osteoclastogenesis bone marrow cells were isolated from 5- to 8-wk-old Balb/c mice. Mice were sacrificed by cervical dislocation and femora and tibiae were aseptically removed and dissected free of adherent soft tissues. The bone ends were cut, and the marrow cavity was flushed out with medium MEM from one end of the bone using a sterile 21-gauge needle. The bone marrow suspension was carefully agitated with a plastic Pasteur pipette to obtain a single-cell suspension. The cells were washed twice and resuspended (10^6 cells/ml) in αMEM containing 10% FBS. […] After 24 h, nonadherent cells were harvested and layered on a Ficoll-Hypaque gradient. Cells at the gradient interface were collected, washed and resuspended (5×10^5/ml) in αMEM containing 10% FBS. In this study, we called these stromal cell-free, M-CSF-dependent, nonadherent cells as osteoclast precursors. These osteoclast precursors were added to 96-well plates (100 μl/well) containing plastic coverslips. Each well received further 100 μl of medium containing M-CSF (30 ng/ml), RANKL (30 ng/ml) without or with various concentrations of purified compound. Cultures were fed every 2-3 days and after incubation for 6 days osteoclast formation was evaluated by tartrate-resistant acid phosphatase (TRAP) staining. The number of TRAP-positive multinucleated cells (MNCs) containing 3 or more nuclei was scored.
TRAP is preferentially expressed at high levels in osteoclast and is considered, especially in the mouse, to be an osteoclast marker. Cytochemical staining for TRAP is widely used for identifying the osteoclasts in vivo and in vitro. It is claimed to be specific for osteoclasts in bone. After incubation, cells on cover slips were washed in PBS, fixed in 10% formalin for 10 min and stained for acid phosphatase in the presence of 0.05 M sodium tartrate. The substrate used was napthol AS-BI phosphate. Only those cells that were strongly TRAP-positive (dark red) counted by light microscopy.

[2] = tested on: mouse bone marrow leukocyte precursors; test: Differentiation of dendritic cells from bone marrow leukocyte precursors, flow cytometry of cell surface markers; format: cell-based, BALB/c mice
Method: (§1) The fine suspension obtained above was transferred into a 50 ml sterile centrifuge tube and centrifuged for 10 minutes at 1200 rpm. […] The pellets were washed using HBSS wash buffer and then centrifuged again for 10 minutes at 1200 rpm. This process was repeated for one more time. […] This suspension was then finally passed through a MACS (Magnetic Activated Cell Sorting) column to get essentially and predominately leukocyte precursors.
In order to evaluate the upregulation of various cell surface markers associated with Dendritic cells, flow cytometry on the cells stimulated with GM-CSF or the compound was carried out using fluorescent labeled antibodies to various molecules (CD11c, I-A^d, CD80, CD86, H2-D^d, CD54, CD40).
The hind limbs of the mouse were removed carefully and placed in a Petri dish with HBSS (Hanks Balanced Saline Solution) wash buffer. The tibias and femurs were cleared of all surrounding and attached tissues. This was followed by chipping the ends of bones. The bone marrow was flushed out by injecting HBSS solution into the bone with the help of a hypodermal syringe (No. 26 gauge). The bone marrow was finally made into a fine suspension by syringing in and out of the fluid several times using an 18 gauge syringe needle.

[3] = tested on: mouse bone marrow leukocyte precursors; test: Viability of the stimulated BM precursor cultures; format: cell-based, BALB/c mice; parameters: Viability, % of Viable cells: reference not given here
Method: as §1

[4] = M-CSF + RANKL + compound 0.5 μg/ml
[5] = M-CSF + RANKL + compound 1.5 μg/ml
[6] = M-CSF + RANKL + compound 3.0 μg/ml
[7] = M-CSF + RANKL + compound 5.0 μg/ml
[8] = Table A, 15 ng/ml of GM-CSF or 50 micro gram per ml of the synthetic compound, 48 h
[9] = Table B (Examples 6-8), concentration not given

O=C([O-])CCC[C@H](NS(=O)(=O)[O-])C(=O)[O-].O=C([O-])CCC[C@H](NS(=O)(=O)[O-])C(=O)[O-].[Ca+2].[Ca+2].[Ca+2] [L-homoglutamic acid, N-sulphonic acid, calcium salt]
% inhibition of osteoclast formation [1, 4]: 5.55%
Number of TRAP-positive multinuclear cells/well of 96 well plate (Mean ± SEM) [1, 4]: 138.57 ± 7.95 cells/well
% inhibition of osteoclast formation [1, 5]: 27.60%
Number of TRAP-positive multinuclear cells/well of 96 well plate (Mean ± SEM) [1, 5]: 106.23 ± 10.47 cells/well
% inhibition of osteoclast formation [1, 6]: 46.40%
Number of TRAP-positive multinuclear cells/well of 96 well plate (Mean ± SEM) [1, 6]: 78.57 ± 13.57 cells/well
% inhibition of osteoclast formation [1, 7]: 68.50%
Number of TRAP-positive multinuclear cells/well of 96 well plate (Mean ± SEM) [1, 7]: 46.22 ± 10.00 cells/well

O=C([O-])CC[C@H](NS(=O)(=O)[O-])C(=O)[O-].O=C([O-])CC[C@H](NS(=O)(=O)[O-])C(=O)[O-].[Ca+2].[Ca+2].[Ca+2] [compound 1, L-glutamyl-N-sulphonic acid, Ca salt]
Induction of differentiation of dendritic cells from BM precursors (in words) [2]: Induces Differentiation of Dendritic Cells
Concentration of maximum up regulation of cell surface densities of CD11c, CD80, CD54 ([2]; incubation of BM leukocyte precursors with different concentrations): 200 mM
Induction of differentiation of dendritic cells from BM precursors (in words) ([2]; listed as the compound): induces the differentiation of DCs from BM precursors
Viability of the cultures at the end of the incubation period ([3]; 200 mM of the synthetic compound, 48 h (embodiment text)): more than 99%
Viability of the cultures at the end of the incubation period ([3]; 50 micro gram per ml of the synthetic compound, 48 h): > 99%
Viability, % of Viable cells [3, 8]: 150%
Effect on RANKL-induced osteoclast differentiation / formation (in words) [1]: dose dependent inhibition in the number of osteoclast cells generated

O=C(O)C[C@H](NS(=O)(=O)O)C(=O)O [example 3, L-aspartyl, N-sulfonic acid]
Effect on RANKL-induced osteoclast differentiation / formation (in words) [1]: significantly inhibited osteoclast formation

GM-CSF: Granulocyte Macrophage-Colony Stimulating Factor, growth factor conventionally used to generate DCs in vitro; comparison
Fold increase in Relative MFI over unstimulated control, surface marker CD11c [2, 8]: 5.0 fold
Fold increase in Relative MFI over unstimulated control, surface marker CD54 [2, 8]: 4.0 fold
Fold increase in Relative MFI over unstimulated control, surface marker CD80 [2, 8]: 3.3 fold
Fold increase in Relative MFI over unstimulated control, surface marker H-2D^d [2, 8]: 2.0 fold
Fold increase in Relative MFI over unstimulated control, surface marker CD11c [2, 9]: 5.0 fold
Fold increase in Relative MFI over unstimulated control, surface marker CD54 [2, 9]: 4.0 fold
Fold increase in Relative MFI over unstimulated control, surface marker CD80 [2, 9]: 3.3 fold
Fold increase in Relative MFI over unstimulated control, surface marker H-2D^d [2, 9]: 2.0 fold
Viability, % of Viable cells [3, 8]: 180%
Viability, % of Viable cells [3, 9]: 180%
